Measured values reported in ChEMBL document CHEMBL4219066, “Identification and Mitigation of Reactive Metabolites of 2-Aminoimidazole-Containing Microsomal Prostaglandin E Synthase-1 Inhibitors Terminated Due to Clinical Drug-Induced Liver Injury” (J Med Chem, 2018).
Each block holds one compound with its values, some of them ahead of it.

Legend:
[1] = Drug metabolism in rat hepatocytes assessed as 2-(difluoromethyl)-5-((3-hydroxy-2-methylpropanamido)methyl)-N-(4-methyl-5-(4-(trifluoromethyl)phenyl)-1H-imidazol-2-yl)nicotinamide formation at 2 uM after 4 hrs by LC-MS/MS analysis; type: ADME, cell-based, Hepatocyte
[2] = Drug metabolism in human hepatocytes assessed as 2-(difluoromethyl)-5-((3-hydroxy-2-methylpropanamido)methyl)-N-(4-methyl-5-(4-(trifluoromethyl)phenyl)-1H-imidazol-2-yl)nicotinamide formation at 2 uM after 4 hrs by LC-MS/MS analysis; type: ADME, cell-based, Hepatocyte
[3] = Drug metabolism in rat hepatocytes assessed as 2-(difluoromethyl)-5-((2-hydroxy-2-methylpropanamido)methyl)-N-(4-methyl-5-(4-(trifluoromethyl)phenyl)-1H-imidazol-2-yl)nicotinamide formation at 2 uM after 4 hrs by LC-MS/MS analysis; type: ADME, cell-based, Hepatocyte
[4] = Drug metabolism in dog hepatocytes assessed as 2-(difluoromethyl)-5-((2-hydroxy-2-methylpropanamido)methyl)-N-(4-methyl-5-(4-(trifluoromethyl)phenyl)-1H-imidazol-2-yl)nicotinamide formation at 2 uM after 4 hrs by LC-MS/MS analysis; type: ADME, cell-based, Canis lupus familiaris, Hepatocyte
[5] = Drug metabolism in human hepatocytes assessed as 2-(difluoromethyl)-5-((2-hydroxy-2-methylpropanamido)methyl)-N-(4-methyl-5-(4-(trifluoromethyl)phenyl)-1H-imidazol-2-yl)nicotinamide formation at 2 uM after 4 hrs by LC-MS/MS analysis; type: ADME, cell-based, Hepatocyte
[6] = Drug metabolism in rat hepatocytes assessed as N-carbamimidoyl-2-(difluoromethyl)-5-(isobutyramidomethyl)nicotinamide formation at 2 uM after 4 hrs by LC-MS/MS analysis; type: ADME, cell-based, Hepatocyte
[7] = Drug metabolism in dog hepatocytes assessed as N-carbamimidoyl-2-(difluoromethyl)-5-(isobutyramidomethyl)nicotinamide formation at 2 uM after 4 hrs by LC-MS/MS analysis; type: ADME, cell-based, Canis lupus familiaris, Hepatocyte
[8] = Drug metabolism in human hepatocytes assessed as N-carbamimidoyl-2-(difluoromethyl)-5-(isobutyramidomethyl)nicotinamide formation at 2 uM after 4 hrs by LC-MS/MS analysis; type: ADME, cell-based, Hepatocyte
[9] = Drug metabolism in rat hepatocytes assessed as 2-(difluoromethyl)-5-(methacrylamidomethyl)-N-(4-methyl-5-(4-(trifluoromethyl)phenyl)-1H-imidazol-2-yl)nicotinamide formation at 2 uM after 4 hrs by LC-MS/MS analysis; type: ADME, cell-based, Hepatocyte
[10] = Drug metabolism in rat hepatocytes assessed as 4-methyl-5-(4-(trifluoromethyl)phenyl)-1H-imidazol-2-amine formation at 2 uM after 4 hrs by LC-MS/MS analysis; type: ADME, cell-based, Hepatocyte
[11] = Drug metabolism in human hepatocytes assessed as 4-methyl-5-(4-(trifluoromethyl)phenyl)-1H-imidazol-2-amine formation at 2 uM after 4 hrs by LC-MS/MS analysis; type: ADME, cell-based, Hepatocyte
[12] = Drug metabolism in rat hepatocytes assessed as metabolite M7 formation at 2 uM after 4 hrs by LC-MS/MS analysis; type: ADME, cell-based, Hepatocyte
[13] = Drug metabolism in human hepatocytes assessed as metabolite M7 formation at 2 uM after 4 hrs by LC-MS/MS analysis; type: ADME, cell-based, Hepatocyte
[14] = Drug metabolism in human liver microsomes assessed as metabolite M7 formation at 2 uM in presence of 1:1 ratio of unlabeled GSH and [glycine 13C2,15N]-labelled GSH after 0.5 hrs by HPLC-MS analysis; type: ADME, microsome
[15] = Drug metabolism in human liver microsomes assessed as metabolite M9 formation at 2 uM in presence of 1:1 ratio of unlabeled GSH and [glycine 13C2,15N]-labelled GSH after 0.5 hrs by HPLC-MS analysis; type: ADME, microsome
[16] = Drug metabolism in Sprague-Dawley rat plasma assessed as 2-(difluoromethyl)-5-((3-hydroxy-2-methylpropanamido)methyl)-N-(4-methyl-5-(4-(trifluoromethyl)phenyl)-1H-imidazol-2-yl)nicotinamide formation at 1000 mg/kg, po measured after 2 hrs post dose by LC/MS analysis; type: ADME, organism-based; details: in vivo
[17] = Drug metabolism in Beagle dog plasma assessed as 2-(difluoromethyl)-5-((3-hydroxy-2-methylpropanamido)methyl)-N-(4-methyl-5-(4-(trifluoromethyl)phenyl)-1H-imidazol-2-yl)nicotinamide formation at 300 to 600 mg/kg, po measured after 2 hrs post dose by LC/MS analysis; type: ADME, organism-based, Canis lupus familiaris; details: in vivo
[18] = In vivo drug metabolism in human plasma assessed as 2-(difluoromethyl)-5-((3-hydroxy-2-methylpropanamido)methyl)-N-(4-methyl-5-(4-(trifluoromethyl)phenyl)-1H-imidazol-2-yl)nicotinamide formation HPLC-MS analysis; type: ADME, organism-based
[19] = Drug metabolism in Sprague-Dawley rat plasma assessed as 2-(difluoromethyl)-5-((2-hydroxy-2-methylpropanamido)methyl)-N-(4-methyl-5-(4-(trifluoromethyl)phenyl)-1H-imidazol-2-yl)nicotinamide formation at 1000 mg/kg, po measured after 2 hrs post dose by LC/MS analysis; type: ADME, organism-based; details: in vivo
[20] = Drug metabolism in Beagle dog plasma assessed as 2-(difluoromethyl)-5-((2-hydroxy-2-methylpropanamido)methyl)-N-(4-methyl-5-(4-(trifluoromethyl)phenyl)-1H-imidazol-2-yl)nicotinamide formation at 300 to 600 mg/kg, po measured after 2 hrs post dose by LC/MS analysis; type: ADME, organism-based, Canis lupus familiaris; details: in vivo
[21] = In vivo drug metabolism in human plasma assessed as 2-(difluoromethyl)-5-((2-hydroxy-2-methylpropanamido)methyl)-N-(4-methyl-5-(4-(trifluoromethyl)phenyl)-1H-imidazol-2-yl)nicotinamide formation HPLC-MS analysis; type: ADME, organism-based
[22] = In vivo drug metabolism in human plasma assessed as 2-(difluoromethyl)-5-(methacrylamidomethyl)-N-(4-methyl-5-(4-(trifluoromethyl)phenyl)-1H-imidazol-2-yl)nicotinamide formation HPLC-MS analysis; type: ADME, organism-based
[23] = Drug metabolism in Sprague-Dawley rat plasma assessed as 5-(aminomethyl)-2-(difluoromethyl)-N-(4-methyl-5-(4-(trifluoromethyl)phenyl)-1H-imidazol-2-yl)nicotinamide formation at 1000 mg/kg, po measured after 2 hrs post dose by LC/MS analysis; type: ADME, organism-based; details: in vivo
[24] = Drug metabolism in Sprague-Dawley rat plasma assessed as 4-methyl-5-(4-(trifluoromethyl)phenyl)-1H-imidazol-2-amine formation at 1000 mg/kg, po measured after 2 hrs post dose by LC/MS analysis; type: ADME, organism-based; details: in vivo
[25] = Drug metabolism in Beagle dog plasma assessed as 4-methyl-5-(4-(trifluoromethyl)phenyl)-1H-imidazol-2-amine formation at 300 to 600 mg/kg, po measured after 2 hrs post dose by LC/MS analysis; type: ADME, organism-based, Canis lupus familiaris; details: in vivo
[26] = In vivo drug metabolism in human urine assessed as 2-(difluoromethyl)-5-((3-hydroxy-2-methylpropanamido)methyl)-N-(4-methyl-5-(4-(trifluoromethyl)phenyl)-1H-imidazol-2-yl)nicotinamide formation by HPLC-MS analysis; type: ADME, organism-based
[27] = In vivo drug metabolism in human urine assessed as 2-(difluoromethyl)-5-((2-hydroxy-2-methylpropanamido)methyl)-N-(4-methyl-5-(4-(trifluoromethyl)phenyl)-1H-imidazol-2-yl)nicotinamide formation by HPLC-MS analysis; type: ADME, organism-based
[28] = In vivo drug metabolism in human urine assessed as N-carbamimidoyl-2-(difluoromethyl)-5-(isobutyramidomethyl)nicotinamide formation by HPLC-MS analysis; type: ADME, organism-based
[29] = In vivo drug metabolism in human urine assessed as 5-(aminomethyl)-2-(difluoromethyl)-N-(4-methyl-5-(4-(trifluoromethyl)phenyl)-1H-imidazol-2-yl)nicotinamide formation by HPLC-MS analysis; type: ADME, organism-based
[30] = Drug metabolism in rat hepatocytes assessed as 2-chloro-N-(4-cyano-1H-imidazol-2-yl)-5-((3-hydroxy-2,2-dimethylpropanamido)methyl)benzamide formation at 2 uM after 4 hrs by LC-MS/MS analysis; type: ADME, cell-based, Hepatocyte
[31] = Drug metabolism in human hepatocytes assessed as 2-chloro-N-(4-cyano-1H-imidazol-2-yl)-5-((3-hydroxy-2,2-dimethylpropanamido)methyl)benzamide formation at 2 uM after 4 hrs by LC-MS/MS analysis; type: ADME, cell-based, Hepatocyte
[32] = Drug metabolism in rat hepatocytes assessed as 2-(2-chloro-5-(pivalamidomethyl)benzamido)-1H-imidazole-4-carboxylic acid formation at 2 uM after 4 hrs by LC-MS/MS analysis; type: ADME, cell-based, Hepatocyte
[33] = Drug metabolism in human hepatocytes assessed as 2-(2-chloro-5-(pivalamidomethyl)benzamido)-1H-imidazole-4-carboxylic acid formation at 2 uM after 4 hrs by LC-MS/MS analysis; type: ADME, cell-based, Hepatocyte
[34] = Drug metabolism in rat hepatocytes assessed as metabolite M2 formation at 2 uM after 4 hrs by LC-MS/MS analysis; type: ADME, cell-based, Hepatocyte
[35] = Drug metabolism in human hepatocytes assessed as metabolite M2 formation at 2 uM after 4 hrs by LC-MS/MS analysis; type: ADME, cell-based, Hepatocyte
[36] = Drug metabolism in human hepatocytes assessed as 2-(2-chloro-5-((3-hydroxy-2,2-dimethylpropanamido)methyl)benzamido)-N-phenyl-1H-imidazole-4-carboxamide formation at 2 uM after 4 hrs by LC-MS/MS analysis; type: ADME, cell-based, Hepatocyte
[37] = Drug metabolism in rat hepatocytes assessed as 2-chloro-5-(pivalamidomethyl)benzoic acid formation at 2 uM after 4 hrs by LC-MS/MS analysis; type: ADME, cell-based, Hepatocyte
[38] = Drug metabolism in human hepatocytes assessed as 2-chloro-5-(pivalamidomethyl)benzoic acid formation at 2 uM after 4 hrs by LC-MS/MS analysis; type: ADME, cell-based, Hepatocyte
[39] = Drug metabolism in rat hepatocytes assessed as 2-(2-chloro-5-((3-hydroxy-2,2-dimethylpropanamido)methyl)benzamido)-N-phenyl-1H-imidazole-4-carboxamide at 2 uM after 4 hrs by LC-MS/MS analysis; type: ADME, cell-based, Hepatocyte

Drug metabolism [1]: Metabolite_Detected | Drug metabolism [2]: Metabolite_Detected | Drug metabolism [3]: Metabolite_Detected | Drug metabolism [4]: Metabolite_Detected | Drug metabolism [5]: Metabolite_Detected | Drug metabolism [6]: Metabolite_Detected | Drug metabolism [7]: Metabolite_Detected | Drug metabolism [8]: Metabolite_Detected | Drug metabolism [9]: Metabolite_Detected | Drug metabolism [10]: Metabolite_Detected | Drug metabolism [11]: Metabolite_Detected | Drug metabolism [12]: Metabolite_Detected | Drug metabolism [13]: Metabolite_Detected | Drug metabolism [14]: Metabolite_Detected | Drug metabolism [15]: Metabolite_Detected | Drug metabolism [16]: Metabolite_Detected | Drug metabolism [17]: Metabolite_Detected | Drug metabolism [18]: Metabolite_Detected | Drug metabolism [19]: Metabolite_Detected | Drug metabolism [20]: Metabolite_Detected | Drug metabolism [21]: Metabolite_Detected | Drug metabolism [22]: Metabolite_Detected | Drug metabolism [23]: Metabolite_Detected | Drug metabolism [24]: Metabolite_Detected | Drug metabolism [25]: Metabolite_Detected | Drug metabolism [26]: Metabolite_Detected | Drug metabolism [27]: Metabolite_Detected | Drug metabolism [28]: Metabolite_Detected | Drug metabolism [29]: Metabolite_Detected
SMILES: Cc1nc(NC(=O)c2cc(CNC(=O)C(C)C)cnc2C(F)F)[nH]c1-c1ccc(C(F)(F)F)cc1

Drug metabolism [30]: Metabolite_Detected | Drug metabolism [31]: Metabolite_Detected
SMILES: CC(C)(C)C(=O)NCc1ccc(Cl)c(C(=O)Nc2nc(C#N)c[nH]2)c1

Drug metabolism [32]: Metabolite_Detected | Drug metabolism [33]: Metabolite_Detected | Drug metabolism [34]: Metabolite_Detected | Drug metabolism [35]: Metabolite_Detected | Drug metabolism [36]: Metabolite_Detected | Drug metabolism [37]: Metabolite_Detected | Drug metabolism [38]: Metabolite_Detected | Drug metabolism [39]: Metabolite_Detected
SMILES: CC(C)(C)C(=O)NCc1ccc(Cl)c(C(=O)Nc2nc(C(=O)Nc3ccccc3)c[nH]2)c1
